According to DBAASP:
Values after ≈ are worked out from the molar mass of the structure shown. Each block holds one compound with its values, some of them ahead of it.

Tests used:
Assay in all cases: ≥ marks a high value that may be exact or a test limit, other limits are often not marked, values filed in µg/mL are converted to µM
[1] = tested on: Pseudomonas aeruginosa ATCC 27853
[2] = tested on: Klebsiella pneumoniae ATCC 13866
[3] = tested on: Escherichia coli ATCC 11229
[4] = tested on: Escherichia coli ATCC 35218
[5] = tested on: Staphylococcus aureus ATCC 29213
[6] = tested on: Staphylococcus aureus ATCC 33591
[7] = tested on: Staphylococcus aureus ATCC 25923
[8] = tested on: Staphylococcus aureus Xen36
Escherichia coli ESBL = tested on: Escherichia coli ESBL
Staphylococcus aureus MR = tested on: Staphylococcus aureus MR
Pseudomonas aeruginosa = tested on: Pseudomonas aeruginosa
[9] = tested on: Staphylococcus aureus ATCC BAA-1696
[10] = tested on: Escherichia coli ATCC 25922
[11] = tested on: Staphylococcus aureus NRS 72
[12] = tested on: Escherichia coli DH5alpha
[13] = tested on: Mycobacterium tuberculosis H37Ra
[14] = tested on: Pseudomonas aeruginosa PAO1
Bacillus subtilis 168 = tested on: Bacillus subtilis 168
[15] = tested on: Staphylococcus aureus USA 300
[16] = tested on: Escherichia coli NBRC 14237
[17] = tested on: Staphylococcus aureus NBRC 12732
[18] = tested on: Saccharomyces cerevisiae NBRC 10217
[19] = tested on: Staphylococcus xylosus DSM 20267
[20] = tested on: Franconibacter helveticus DSM 18390
[21] = tested on: Escherichia coli DSM 1116
[22] = tested on: Bacillus subtilis DSM 347
Bacillus pumilus = tested on: Bacillus pumilus
Candida boidinii = tested on: Candida boidinii
Escherichia coli = tested on: Escherichia coli
Psychrobacter sp. TAD 1 = tested on: Psychrobacter sp. TAD 1
[23] = tested on: Staphylococcus epidermidis NBRC 12993
[24] = tested on: Candida viswanathii NBRC 10321
[25] = tested on: Micrococcus luteus NBRC 3333
[26] = tested on: Escherichia coli NBRC 3972
[27] = tested on: Aspergillus oryzae NBRC 100959
[28] = tested on: Staphylococcus aureus NCTC 10788
[29] = tested on: Escherichia coli NCTC 10418
[30] = tested on: Candida albicans NCTC 1467
[31] = tested on: Staphylococcus aureus NCTC 12493
[32] = tested on: Klebsiella pneumoniae ATCC 43816

Structure (SMILES): CSCC[C@H](NC(=O)[C@H](CC(C)C)NC(=O)CN)C(=O)N[C@@H](CCCCN)C(=O)N[C@@H](CC(C)C)C(=O)N[C@@H](CC(C)C)C(=O)N[C@@H](CCCN=C(N)N)C(=O)N[C@@H](CCC(=O)O)C(=O)N[C@@H](CC(C)C)C(=O)N[C@@H](CC(C)C)C(=O)N[C@@H](Cc1cnc[nH]1)C(=O)N[C@@H](CCSC)C(=O)N[C@@H](Cc1ccccc1)C(=O)N[C@@H](CO)C(=O)N[C@@H](CCCN=C(N)N)C(=O)N[C@H](C(=O)NCC(=O)O)C(C)C [GLMKLLRELLHMFSRVG]
MIC [1]: 8 µM (≈ 16 µg/mL)
MIC [2]: 32 µM (≈ 64 µg/mL)
MIC [3]: ≥ 64 µM
MIC [4]: ≥ 64 µM
MIC [5]: 32 µM (≈ 64 µg/mL)
MIC [6]: 16 µM (≈ 32 µg/mL)
MIC [7]: 32 µM (≈ 64 µg/mL)

Structure (SMILES): NCCCC[C@H](NC(=O)CNC(=O)[C@H](CCCCN)NC(=O)[C@H](CC(N)=O)NC(=O)[C@H](CCCCN)NC(=O)[C@H](Cc1cnc[nH]1)NC(=O)[C@H](CCCCN)NC(=O)CN)C(=O)N[C@@H](CCCCN)C(=O)N[C@@H](CC(N)=O)C(=O)NCC(=O)N[C@@H](CCCCN)C(=O)N[C@@H](Cc1cnc[nH]1)C(=O)N[C@@H](CC(N)=O)C(=O)NCC(=O)N[C@@H](Cc1c[nH]c2ccccc12)C(=O)N[C@@H](CCCCN)C(=O)N[C@@H](Cc1c[nH]c2ccccc12)C(=O)N[C@@H](Cc1c[nH]c2ccccc12)C(=O)N[C@@H](Cc1c[nH]c2ccccc12)C(=O)O [GKHKNKGKKNGKHNGWKWWW]
MIC [1]: 3.19 µM (≈ 8 µg/mL)
MIC [8]: 3.27 µM (≈ 8.19 µg/mL)
MIC (Escherichia coli ESBL): 2.26 µM (≈ 5.66 µg/mL)
MIC (Staphylococcus aureus MR): 1.6 µM (≈ 4 µg/mL)
MIC (Pseudomonas aeruginosa): 6.39 µM (≈ 16 µg/mL)
MIC [9]: 3.27 µM (≈ 8.19 µg/mL)
MIC [5]: > 3.27 µM
MIC [10]: 3.19 µM (≈ 8 µg/mL)
MIC [7]: 1.6 µM (≈ 4 µg/mL)

Structure (SMILES): CC[C@H](C)[C@H](NC(=O)CNC(=O)[C@H](CCCN=C(N)N)NC(=O)[C@H](CC(C)C)NC(=O)[C@H](CC(C)C)NC(=O)[C@H](Cc1cnc[nH]1)NC(=O)CNC(=O)[C@H](Cc1ccccc1)NC(=O)[C@@H](N)Cc1ccccc1)C(=O)N[C@H](C(=O)N[C@@H](CO)C(=O)N[C@H](C(=O)NCC(=O)N[C@@H](CCCCN)C(=O)N[C@@H](Cc1cnc[nH]1)C(=O)N[C@H](C(=O)N[C@@H](Cc1cnc[nH]1)C(=O)NCC(=O)N[C@@H](CC(C)C)C(=O)N[C@H](C(=O)N[C@H](C(=O)NCC(=O)O)[C@@H](C)O)[C@@H](C)CC)[C@@H](C)CC)C(C)C)C(C)C [FFGHLLRGIVSVGKHIHGLITG]
MIC (Bacillus pumilus): 10 µM (≈ 23.6 µg/mL)
MIC (Candida boidinii): ≥ 50 µM
MIC (Escherichia coli): 25 µM (≈ 59 µg/mL)
MIC (Psychrobacter sp. TAD 1): 2.5 µM (≈ 5.9 µg/mL)

Structure (SMILES): CC[C@H](C)[C@@H]1NC(=O)[C@H](CC(C)C)NC(=O)[C@@H](NC(=O)[C@H](Cc2ccccc2)NC(=O)[C@H](CC(C)C)NC(=O)[C@H](CCCCN)NC(=O)[C@@H]2CCCN2C(=O)[C@H](CC(C)C)NC(=O)[C@@H](NC(=O)[C@H](CCCCN)NC(=O)[C@@H](NC(=O)[C@@H](NC(=O)[C@H](C)NC(=O)CNC(=O)[C@H](CC(C)C)NC(=O)[C@H](C)NC(=O)[C@@H](N)Cc2ccccc2)C(C)C)[C@@H](C)O)C(C)C)CSSC[C@@H](C(=O)O)NC(=O)[C@H](CCCCN)NC(=O)[C@H](CCCN=C(N)N)NC(=O)[C@H]([C@@H](C)O)NC1=O [FALGAVTKVLPKLFCLITRKC]
MIC [1]: 64 µM (≈ 148 µg/mL)
MIC [28]: 4 µM (≈ 9.28 µg/mL)
MIC [29]: 16 µM (≈ 37.1 µg/mL)
MIC [30]: 16 µM (≈ 37.1 µg/mL)
MIC [31]: 8 µM (≈ 18.6 µg/mL)
MIC [32]: ≥ 64 µM

Now from value to compound:

MIC [11]: ≥ 80 µM
MIC [12]: ≥ 80 µM
MIC [13]: ≥ 80 µM
MIC [14]: > 80 µM
MIC (Bacillus subtilis 168): ≥ 80 µM
MIC [15]: ≥ 80 µM
Structure (SMILES): CC(C)C[C@H](NC(=O)[C@H](Cc1cnc[nH]1)NC(=O)[C@H](CO)NC(=O)[C@H](CC(N)=O)NC(=O)[C@H](CCCCN)NC(=O)[C@H](CCCCN)NC(=O)[C@H](Cc1ccccc1)NC(=O)[C@H](Cc1c[nH]c2ccccc12)NC(=O)[C@H](CCCCN)NC(=O)CNC(=O)[C@H](Cc1c[nH]c2ccccc12)NC(=O)[C@@H](N)CCCN=C(N)N)C(=O)N[C@@H](CO)C(N)=O [RWGKWFKKNSHLS]

MIC [16]: 6.25 µM (≈ 22.2 µg/mL)
MIC [17]: 6.25 µM (≈ 22.2 µg/mL)
MIC [18]: 6.25 µM (≈ 22.2 µg/mL)
Structure (SMILES): CC[C@H](C)[C@H](NC(=O)[C@H](CCCN=C(N)N)NC(=O)[C@H](CCCN=C(N)N)NC(=O)[C@H](CCCN=C(N)N)NC(=O)[C@H](CO)NC(=O)[C@H](Cc1ccccc1)NC(=O)[C@H](CC(=O)O)NC(=O)[C@H](Cc1ccccc1)NC(=O)[C@H](CCCN=C(N)N)NC(=O)[C@H](CCCN=C(N)N)NC(=O)[C@H](CCCN=C(N)N)NC(=O)[C@@H](N)CO)C(=O)N[C@@H](Cc1ccc(O)cc1)C(=O)N[C@H](C(=O)N[C@@H](C)C(=O)N[C@@H](CCCN=C(N)N)C(=O)N[C@@H](CCCN=C(N)N)C(=O)N[C@@H](CCCN=C(N)N)C(=O)N[C@@H](CO)C(=O)N[C@@H](CC(C)C)C(=O)N[C@@H](C)C(=O)N[C@@H](Cc1ccccc1)C(=O)N[C@@H](C)C(=O)N[C@@H](Cc1cnc[nH]1)C(=O)N[C@@H](CCCN=C(N)N)C(=O)N[C@@H](CCCN=C(N)N)C(=O)N[C@@H](CCCN=C(N)N)C(=O)O)C(C)C [SRRRFDFSRRRIYVARRRSLAFAHRRR]

MIC [19]: 3.65 µM (≈ 8 µg/mL)
MIC [20]: 7.31 µM (≈ 16 µg/mL)
MIC [21]: 14.6 µM (≈ 32 µg/mL)
MIC [22]: 14.6 µM (≈ 32 µg/mL)
Structure (SMILES): CC(C)C[C@H](NC(=O)[C@H](CCCCN)NC(=O)[C@H](CC(C)C)NC(=O)[C@H](CCCCN)NC(=O)[C@H](CC(C)C)NC(=O)[C@H](CCCCN)NC(=O)[C@H](CC(C)C)NC(=O)[C@H](CCCCN)NC(=O)[C@H](CC(C)C)NC(=O)[C@H](CCCCN)NC(=O)[C@H](CC(C)C)NC(=O)[C@H](CCCCN)NC(=O)[C@H](CC(C)C)NC(=O)[C@H](CCCCN)NC(=O)[C@H](CC(C)C)NC(=O)[C@H](CCCCN)NC(=O)[C@H](CC(C)C)NC(=O)[C@@H](N)CCCCN)C(N)=O [KLKLKLKLKLKLKLKLKL]

MIC [23]: 29.8 µM (≈ 50 µg/mL)
MIC [24]: ≥ 59.7 µM
MIC [25]: ≥ 59.7 µM
MIC [26]: ≥ 477 µM
MIC [27]: ≥ 59.7 µM
Structure (SMILES): CSCC[C@H](NC(=O)[C@H](CCCCN)NC(=O)[C@H](Cc1c[nH]c2ccccc12)NC(=O)[C@H](CCCN=C(N)N)NC(=O)[C@H](CCCCN)NC(=O)[C@H](Cc1ccccc1)NC(=O)[C@H](CC(C)C)NC(=O)[C@H](CCCN=C(N)N)NC(=O)[C@H](CCCCN)NC(=O)[C@@H](NC(=O)[C@H](CCCCN)NC(=O)[C@@H](N)CCCN=C(N)N)C(C)C)C(=O)O [RKVKRLFKRWKM]
